Assays:
Tregs (CD4+Foxp3+) = test: Inhibition of Tregs in vivo; parameters: species or system mice; conditions: for number of Foxp3+ Tregs in the thymus, lymph nodes, or spleen: alone or in combination; for % of CD4+ Foxp3+ Cells: bone marrow, control 24.5; for % of CD4+ Foxp3+ Cells / inhibition of the number of Tregs (CD4+Foxp3+) in the bone marrow: non-tumor bearing mice treated for 16 days; for inhibition of the number of Tregs (CD4+Foxp3+) in the peripheral blood / inhibition of the number of Tregs (CD4+Foxp3+) in the bone marrow: compared with control
Description: Determination of inhibition of Tregs in vivo. […] Single-cell suspensions were prepared from bone marrows, lymph nodes, spleens, thymuses and peripheral blood of mice. Single cells were surface-stained by FITC-conjugated anti-CD4 (L3T4), PerCP-conjugated anti-CD8 (53-6.7) and APC-conjugated anti-CD25 (PC61), and the cells were further subjected to intracellular staining with PE-conjugated mAbs to mouse FoxP3 (clone FJK-16s; eBioscience, San Diego, Calif.) using staining buffers and conditions specified by the manufacturer.
In vivo treatment of mice with IFN-α and WP1193 inhibits bone marrow-derived Tregs but combinational therapy is not synergistic. To ascertain the in vivo effects of IFN-α and WP1193, and in combination on Tregs, non-tumor bearing mice were treated for 16 days.

B16 target cells = test: Ex vivo splenocyte cytotoxicity assay; type: cell-based, mice; conditions: 48 h
Source text: Spleens from 4- to 6-week-old female mice in the above treatment schema were harvested and disassociated into a single cell suspension. After erythrocytes were lysed with 1×RBC lysis buffer (eBioscience), splenocytes were washed once with RPMI 1640 medium and were ready as effector cells for the standard cytotoxicity assay. Wang L, Yi T, Kortylewski M, Pardoll D M, Zeng D, Yu H, IL-17 Can Promote Tumor Growth Through An IL-6-Stat3 Signaling Pathway, J Exp Med 2009; 206:1457-64. For target cells, B16 cells in RPMI 1640 medium were cultured for 3 days, trypsinized, pelleted, and resuspended in FACS buffer at room temperature to achieve a concentration of 10^6 cells/ml. Carboxy-fluorescein diacetate succinimidyl ester (CFSE) stock solution (CellTrace CFSE Cell Proliferation Kit; Invitrogen, Eugene, Oreg.) was added to achieve a final concentration of 4 μM. The mixture was incubated at 37° C. for 10 minutes, and then the staining reaction was quenched by the addition of five volumes of ice-cold PBS for 5 minutes. The B16 cells were washed three times in RPMI 1640 medium and plated for the cytotoxicity assay. The ratios of splenocyte effector cells to B16 target cells were 30:1 and 100:1. After 48 h of incubation, the CFSE-labeled B16 melanoma cells were removed from the plates with trypsin-EDTA (0.05%) and analyzed by FACS. The B16 cells were stained with propidium iodide (PI; BD Biosciences) to distinguish viable cells from nonviable cells. B16 cells that were stained with CFSE and PI were considered nonviable. Flow cytometric acquisition of the B16 target cells was performed with a FACSCalibur flow cytometer (BD Biosciences), and data analysis was performed using FlowJo software (TreeStar, Ashland, Oreg.).
To ascertain the underlying in vivo immunological mechanism that is responsible for the therapeutic efficacy, we examined splenocytes cytotoxic responses directed against B16 melanoma cells. Splenocytes from control mice and mice treated with WP1193, IFN-α, or IFN-α+WP1193 were isolated and co-cultured with CFSE-labeled B16 target cells for 48 hours to assess splenocyte cytotoxicity against B16 cells. […] Furthermore, in mice treated with both IFN-α and WP1193, there was additive enhanced cytotoxic clearance of the B16 target cells compared with mice that were treated with either WP1193 or IFN-α alone (P<0.01;).

serum cytokines = test: Serum cytokine levels (Bio-Plex); type: in vivo, C57BL/6J mice; conditions: for IFN-gamma Concentration: control 1.5; for IL-1B Concentration: control 40.1; for TNF alpha Concentration: control 60.5
Description: Determination of serum cytokine levels. Groups of non-tumor bearing 4- to 6-week-old female mice were treated with either IFN-α or “empty” plasmid control, WP1193, or IFN-α in combination with WP1193 as described in FIG. 13. Blood was collected through a tail vein from mice 9 and 16 days after the first WP1193 administration. […] The assay was run according to the manufacturer's instruction (Bio-Rad) by the Immunology Core Service at MD Anderson Cancer Center (Houston, Tex.).
This experiment was reproduced twice in its entirety with identical findings.

[1] = test system: NK1.1+ NK cells from splenocytes; test: NK cell activating receptors (flow cytometry); type: cell-based, mice; conditions: WP1193 2 μM, IFN-α 20 ng/ml, 24 hours (FIGS. 6C and 6D)
Description: Spleens from 4- to 6-week-old female mice were harvested and disassociated into a single-cell suspension as described above. Splenocytes were seeded at a density of 4×10^6 cells/well in 24-well culture plates and cultured with the RPMI 1640 medium in absence or presence of WP1193 (2 μM) and/or INF-α (20 ng/ml) for 24 hours. Afterwards, the cells were harvested and washed twice in PBS with 5% FCS, resuspended in staining buffer and labeled with FITC- or PE-conjugated anti-mouse NK1.1 (eBioscience, San Diego, Calif.) to identify the NK population. […] Following incubation, the cells were washed twice with FACS buffer and then analyzed with a BD FACSCalibur with gates set for viable splenocytes.
Because we observed NK and CD8+ T cell-mediated anti-tumor cytotoxicity were enhanced with combinational therapy, to ascertain if either IFN-α, WP1193 or both were augmenting the expression of MHC or NK activating receptors or their ligands, splenocytes and B16 cells were treated with RPMI 1640 medium (control), WP1193 (2 μM), IFN-α (20 ng/ml), or IFN-α (20 ng/ml)+WP1193 (2 μM) for 24 hours. The NK-activating ligands (Rae-1, H60 and CD155) and MHC (I and II) on B16 cells and the NK-activating receptors (NKG2D, KLRD1, NKp46 and DNAM-1) on NK1.1+ NK cells were analyzed by flow cytometric analysis.

[2] = 30:1 ratio of splenocytes to B16 Tumor Cells, control 25.2
[3] = 100:1 ratio of splenocytes to B16 Tumor Cells, control 38.1

Compound	number of Foxp3+ Tregs in the thymus, lymph nodes, or spleen (Tregs (CD4+Foxp3+))	% of CD4+ Foxp3+ Cells (Tregs (CD4+Foxp3+))	inhibition of the number of Tregs (CD4+Foxp3+) in the peripheral blood (Tregs (CD4+Foxp3+))	inhibition of the number of Tregs (CD4+Foxp3+) in the bone marrow (Tregs (CD4+Foxp3+))	% of B16 Killimg (B16 target cells; [2])	% of B16 Killimg (B16 target cells; [3])	IFN-gamma Concentration (serum cytokines)	IL-1B Concentration (serum cytokines)	TNF alpha Concentration (serum cytokines)	NKG2D, KLRD1, NKp46 and DNAM-1 on NK cells [1]	suppressive activity of sorted Tregs (Tregs (CD4+Foxp3+); FoxP3-GFP reporter mouse, IFN-α-treated or control)
N#C/C(=C\c1cccc(Br)n1)C(=O)N[C@H](c1ccccc1)C1CC1 [WP1193, (S,E)-3-(6-bromopyridin-2-yl)-2-cyano-N-(cyclopropyl(phenyl)methyl)acrylamide]	did not inhibit	16.8%	20%	31%	29.8%	42.0%	Not detected	20.0 pg/mL	60.0 pg/mL	did not appear to be up-regulated	–
IFN-α	did not inhibit	5.2%	46%	78%	40.1%	51.6%	20.2 pg/mL	41.3 pg/mL	98.7 pg/mL	did not appear to be up-regulated	did not see a decrease in the suppressive activity

From patent publication US20130129675A1, “INTERFERON THERAPIES IN COMBINATION WITH BLOCKADE OF STAT3 ACTIVATION” (BOARD OF REGENTS, THE UNIVERSITY OF TEXAS SYSTEM, priority 2009, published 2013)
